The values below come from patent US7786141B2 (Vertex Pharmaceuticals Incorporated, priority 2004, dated 2010).

The target in assay [1] is T1, M4 muscarinic receptor (Homo sapiens, UniProt P08173).
T1 construct: expressed in transfected cells; host or cells: CHO (M4-CHO)
T1 sequence (P08173 1-479): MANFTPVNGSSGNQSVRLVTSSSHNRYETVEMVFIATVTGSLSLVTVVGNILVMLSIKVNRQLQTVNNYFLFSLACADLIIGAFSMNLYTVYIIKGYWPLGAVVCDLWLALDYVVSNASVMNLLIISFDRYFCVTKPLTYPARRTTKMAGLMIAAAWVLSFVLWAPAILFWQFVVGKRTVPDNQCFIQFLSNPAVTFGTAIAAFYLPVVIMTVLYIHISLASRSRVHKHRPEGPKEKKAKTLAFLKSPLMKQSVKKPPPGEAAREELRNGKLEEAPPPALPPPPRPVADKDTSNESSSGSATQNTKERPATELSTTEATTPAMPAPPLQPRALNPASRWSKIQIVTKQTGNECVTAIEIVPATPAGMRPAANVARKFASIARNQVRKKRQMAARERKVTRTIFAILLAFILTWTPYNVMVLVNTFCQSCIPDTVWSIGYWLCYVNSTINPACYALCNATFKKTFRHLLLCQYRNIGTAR
As to the kind of experiment: Functional mobilization of intracellular calcium (FLIPR) in M4-CHO cells. Format: cell-based. Conditions: Table 4; for Emax: 100% efficacy is the maximum response obtained with the Carbachol control; for M4 Activity: modulating M4 receptor. An outline of the steps:
(§1)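 FLIPR Ca2+ read, ex 488/em 540 nm, 60 s. Recombinant CHO lines (M1 or M4), dye-loaded Fluo-3 AM 60-90 min at 37° C, probenecid 1 mM, pH 7.4. Agonist: compound alone; inhibition: 15 min compound pre-incubation, then carbachol at EC80 for that subtype.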

The target of assay [2] is T2, M1 muscarinic receptor (Homo sapiens, UniProt P11229).
T2 construct: expressed in transfected cells; host or cells: CHO (M1-CHO)
T2 sequence (P11229 1-460): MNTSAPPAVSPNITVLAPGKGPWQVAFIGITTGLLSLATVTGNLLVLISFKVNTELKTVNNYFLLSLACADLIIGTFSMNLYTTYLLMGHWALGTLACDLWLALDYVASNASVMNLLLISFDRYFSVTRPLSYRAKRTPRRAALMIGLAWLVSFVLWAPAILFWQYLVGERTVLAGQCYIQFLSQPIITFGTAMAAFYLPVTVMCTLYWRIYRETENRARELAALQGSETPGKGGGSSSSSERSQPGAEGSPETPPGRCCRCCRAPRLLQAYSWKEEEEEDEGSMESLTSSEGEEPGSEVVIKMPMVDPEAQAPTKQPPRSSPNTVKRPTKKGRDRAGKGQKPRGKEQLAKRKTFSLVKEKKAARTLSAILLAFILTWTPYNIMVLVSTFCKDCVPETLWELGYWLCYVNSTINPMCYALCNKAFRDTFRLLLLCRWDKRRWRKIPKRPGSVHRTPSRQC
In words: Functional mobilization of intracellular calcium (FLIPR) in M1-CHO cells. Format: cell-based. Conditions: Table 4; for Emax: 100% efficacy is the maximum response obtained with the Carbachol control; for M1 Activity: modulating M1 receptor. The procedure, abridged:
as §1

In general, Emax refers to the maximal effect, on the per cent scale that the assay sets. On to `CCCCOC(=O)N1C2CCC1CC(N1CCC3(CC1)CN(C(C)=O)c1ccccc13)C2` (stereo not drawn) [compound 604], for which, in assay [1], the maximal response (Emax) lay within 25 to 100% and the “M4 Activity” value is on record as “xxx (activity was measured to be less than 2.0 μM)”. Besides, in assay [2], the Emax is under 25% and the “M1 Activity” value is on record as “x (activity was measured to be greater than 5.0 μM)”.

For the compound `CC(=O)N[C@H]1CCC2(CCN(CC3CCCCC3)CC2)c2ccccc21` [compound 605], in assay [1], the maximal response (Emax) was in the range of 25 to 100% and the “M4 Activity” value is “xxx (activity was measured to be less than 2.0 μM)”. In addition, in assay [2], the Emax lay within 25 to 100% and the “M1 Activity” value is recorded as “xxx (activity was measured to be less than 2.0 μM)”.

Take `CCOC(=O)N1C2CCC1CC(N1CCC3(CC1)CN(C(C)=O)c1ccc(C(C)C)cc13)C2` (stereo not drawn) [compound 606]: in assay [1], the Emax is 25 to 100% and the “M4 Activity” value was “xxx (activity was measured to be less than 2.0 μM)”. Further, in assay [2], the Emax was 25 to 100% and the “M1 Activity” value is on record as “xxx (activity was measured to be less than 2.0 μM)”.

Consider `COCCOC(=O)N1C2CCC1CC(N1CCC3(CC1)CN(C(C)=O)c1ccccc13)C2` (stereo not drawn) [compound 607], for which, in assay [1], the Emax lay in the range of 25 to 100% and the “M4 Activity” value is listed as “xxx (activity was measured to be less than 2.0 μM)”. Further, in assay [2], the maximal effect (Emax) lay in the range of 25 to 100% and the “M1 Activity” value is on record as “xxx (activity was measured to be less than 2.0 μM)”.

On to `CN(C)C(=O)N1CC2(CCN(C[C@@H]3CCN(c4cnccn4)C3)CC2)c2cc(F)ccc21` [compound 608], for which, in assay [1], the Emax fell in the range of 25 to 100% and the “M4 Activity” value is “xxx (activity was measured to be less than 2.0 μM)”. Moreover, in assay [2], the Emax fell in the range of 25 to 100% and the “M1 Activity” value is reported as “xxx (activity was measured to be less than 2.0 μM)”.

`O=C1CC2(CCN(C3CCCCCC3)CC2)c2ccc(Cl)cc21` [compound 609]: in assay [1], the Emax lay in the range of 25 to 100% and the “M4 Activity” value is reported as “xxx (activity was measured to be less than 2.0 μM)”. In addition, in assay [2], the Emax lay in the range of 25 to 100%; the “M1 Activity” value was “xx (activity was measured to be between 2.0 μM and 5.0 μM)”.

On to `CCOC(=O)N1CCC(N2CCC3(CC2)CN(C(C)=O)c2c(C)cc(C)cc23)CC1` [compound 610], for which, in assay [1], the maximal effect (Emax) is 25 to 100% and the “M4 Activity” value is listed as “xxx (activity was measured to be less than 2.0 μM)”. In assay [2], the maximal response (Emax) fell in the range of 25 to 100% and the “M1 Activity” value was “xxx (activity was measured to be less than 2.0 μM)”.

Take `CC(=O)N1CC2(CCN(C3CCN(c4cncc(C5CC5)n4)CC3)CC2)c2ccccc21` [compound 611]: in assay [1], the Emax is under 25% and the “M4 Activity” value is on record as “x (activity was measured to be greater than 5.0 μM)”. Also, in assay [2], the Emax was in the range of 25 to 100% and the “M1 Activity” value is “xxx (activity was measured to be less than 2.0 μM)”.

For `O=C(O)C1CC2(CCN(C3CCCCC3)CC2)c2ccccc21` (stereo not drawn) [compound 612], in assay [1], the Emax lay in the range of 25 to 100% and the “M4 Activity” value was “x (activity was measured to be greater than 5.0 μM)”. Besides, in assay [2], the Emax is under 25% and the “M1 Activity” value is “x (activity was measured to be greater than 5.0 μM)”.

Regarding `CC#CC(C)OC(=O)N1CCC(N2CCC3(CC2)CN(C(=O)N(C)C)c2ccc(F)cc23)CC1` (stereo not drawn) [compound 614], in assay [1], the maximum response (Emax) is 25 to 100% and the “M4 Activity” value is reported as “xxx (activity was measured to be less than 2.0 μM)”. Besides, in assay [2], the Emax is 25 to 100% and the “M1 Activity” value is listed as “xxx (activity was measured to be less than 2.0 μM)”.

`CCOC(=O)N1CCC(N2CCC3(CC2)CN(C(C)=O)c2cccc(C(F)(F)F)c23)CC1` [compound 615]: in assay [1], the Emax is under 25%; the “M4 Activity” value is “xx (activity was measured to be between 2.0 μM and 5.0 μM)”. Besides, in assay [2], the Emax lay within 25 to 100% and the “M1 Activity” value was “xxx (activity was measured to be less than 2.0 μM)”.

Regarding `CC(=O)NC1CCC2(CCN(CC3CCOCC3)CC2)c2ccccc21` (stereo not drawn) [compound 616], in assay [1], the Emax fell in the range of 25 to 100% and the “M4 Activity” value is reported as “x (activity was measured to be greater than 5.0 μM)”. For the same compound, in assay [2], the Emax was over 100% and the “M1 Activity” value is listed as “xxx (activity was measured to be less than 2.0 μM)”.
